Patent US10174050B2, “Spiroisoxazoline compounds having an activity potentiating the activity of an antibiotic” (priority 2012, dated 2019)
Converted amounts (≈) assume the structure as drawn.

Key:
[1] = tested on: macrophages infected by M. tuberculosis; assay: Potentiation of ethionamide cell test (HCS); assay type: cell-based; conditions: ligand concentration necessary to potentiate ten times the activity of ethionamide (inhibit 50% of bacterial growth), constant ethionamide 0.1 μg/mL (1/10th of its CMI99)
physchem = assay type: physicochemical; conditions: pH 7.4, aqueous buffer, kinetic from dmso stock
Description: 40 μL of a 10 mM solution in DMSO of the sample are added to 1.96 mL MeOH or PBS at pH 7.4. The samples are then agitated during 24 h at RT, centrifuged during 5 min and then filtrated on filters of 0.45 μm pore size. 20 μL of each solution are then added to 180 μL MeOH and then analyzed by LC-MS. The solubility is determined as ratio of the surfaces of the mass signals PBS/MeOH.

| SMILES | EC50 [1] | solubility at 24 h (physchem) |
| --- | --- | --- |
| O=C(CCC(F)(F)F)N1CCC2(CC(c3ccccc3)=NO2)C1 (stereo not shown) [Compound 4] | 0.53 µM | – |
| O=C(CCC(F)(F)F)N1CC2(CC(c3ccccc3)=NO2)C1 [Compound 5] | 0.11 µM | – |
| O=C(CCC(F)(F)F)N1CCC2(CC1)CC(c1cccs1)=NO2 [Compound 6] | 0.03 µM | – |
| O=C(CCC(F)(F)F)N1CCC2(CC1)CC(c1nccs1)=NO2 [Compound 7] | 0.04 µM | – |
| CC(C)CCC(=O)N1CCC2(CC1)CC(c1cccs1)=NO2 [Compound 8] | 0.13 µM | – |
| O=C(CCCC(F)(F)F)N1CCC2(CC1)CC(c1nccs1)=NO2 [Compound 9] | 0.07 µM | – |
| O=C(CCC(F)(F)F)N1CCC2(CC1)CC(c1ccccc1)=NO2 [Compound 10] | 0.02 µM | 150 µM (≈ 51.1 µg/mL) |
| Cc1ccc(C2=NOC3(CCN(C(=O)CCC(F)(F)F)CC3)C2)cc1 [Compound 11] | 2.5 µM | – |
| COc1ccccc1C1=NOC2(CCN(C(=O)CCC(F)(F)F)CC2)C1 [Compound 14] | 0.02 µM | – |
| COc1cccc(C2=NOC3(CCN(C(=O)CCC(F)(F)F)CC3)C2)c1 [Compound 15] | 0.29 µM | – |
| O=C(CCC(F)(F)F)N1CCC2(CC1)CC(c1ccc3c(c1)OCO3)=NO2 [Compound 18] | 1.3 µM | – |
| O=C(CCC(F)(F)F)N1CCC2(CC1)CC(c1ccccc1Cl)=NO2 [Compound 20] | 0.03 µM | – |
| O=C(CCC(F)(F)F)N1CCC2(CC1)CC(c1ccc(Cl)cc1)=NO2 [Compound 21] | 5.8 µM | – |
| O=C(CCC(F)(F)F)N1CCC2(CC1)CC(c1ccc(F)cc1)=NO2 [Compound 22] | 0.5 µM | – |
| O=C(CCC(F)(F)F)N1CCC2(CC1)CC(c1cccc(C(F)(F)F)c1)=NO2 [Compound 23] | 0.4 µM | – |
| O=C(CCC(F)(F)F)N1CCC2(CC1)CC(C1CCCCC1)=NO2 [Compound 27] | 0.08 µM | – |
| O=C(CCC(F)(F)F)N1CCC2(CC1)CC(C1CCCC1)=NO2 [Compound 28] | 0.08 µM | – |
| O=C(CCC(F)(F)F)N1CCC2(CC1)CC(Cc1ccccc1)=NO2 [Compound 29] | 0.02 µM | – |
| O=C(CCC(F)(F)F)N1CCC2(CC1)CC(c1ccco1)=NO2 [Compound 30] | 0.05 µM | – |
| O=C(CCC(F)(F)F)N1CCC2(CC1)CC(c1ccccn1)=NO2 [Compound 31] | 0.15 µM | – |
| CC(C)CCC(=O)N1CCC2(CC1)CC(c1ccccc1)=NO2 [Compound 32] | 5 µM | – |
| CC(C)CCC(=O)N1CCC2(CC1)CC(c1ccccn1)=NO2 [Compound 45] | 1.3 µM | – |
| CC(C)CCC(=O)N1CCC2(CC1)CC(c1ccccc1Cl)=NO2 [Compound 46] | 1.3 µM | – |
| COc1ccccc1C1=NOC2(CCN(C(=O)CCC(C)C)CC2)C1 [Compound 49] | 0.63 µM | – |
| O=C(CCCC(F)(F)F)N1CCC2(CC1)CC(c1ccccc1Cl)=NO2 [Compound 50] | 0.77 µM | – |
| O=C(CCCC(F)(F)F)N1CCC2(CC1)CC(c1ccccc1)=NO2 [Compound 51] | 1 µM | – |
| O=C(CCc1ccccc1)N1CCC2(CC1)CC(c1ccccc1)=NO2 [Compound 59] | 1 µM | – |
